Measurements taken from the supplement of paper PMC9663587.

Columns and labels:
[1] = compound: C=CC(=O)Nc1ccc(C(=O)Nc2[nH]nc3c2CN(C(=O)N[C@H](CN(C)C)c2ccccc2)C3(C)C)cc1 [YKL-5-124]; experiment: GR value, 72 h; higher = faster growth (1 = untreated, <0 = killing);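 further: breast cancer and non-malignant breast epithelial lines, nine half-log doses, viable cells counted by Hoechst and LIVE/DEAD dye imaging versus time-zero plates and DMSO controls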
[2] = compound: CN(C)C(=O)c1cc2cnc(Nc3ccc(N4CCNCC4)cn3)nc2n1C1CCCC1 [LEE011/Ribociclib]; experiment: as above
[3] = compound: CC(=O)c1c(C)c2cnc(Nc3ccc(N4CCNCC4)cn3)nc2n(C2CCCC2)c1=O; experiment: as above
[4] = compound: CN1CC[C@H](c2c(O)cc(O)c3c(=O)cc(-c4ccccc4Cl)oc23)[C@H](O)C1 [Flavopiridol]; experiment: as above
[5] = compound: CCN1CCN(Cc2ccc(Nc3ncc(F)c(-c4cc(F)c5nc(C)n(C(C)C)c5c4)n3)nc2)CC1; experiment: as above
[6] = compound: CN(C)C/C=C/C(=O)Nc1ccc(C(=O)Nc2cccc(Nc3ncc(Cl)c(-c4c[nH]c5ccccc45)n3)c2)cc1 [THZ1]; experiment: as above
[7] = compound: CN(C)C/C=C/C(=O)Nc1ccc(C(=O)N2CCC[C@@H](Nc3ncc(Cl)c(-c4c[nH]c5ccccc45)n3)C2)cc1 [THZ531]; experiment: as above
[8] = compound: CCc1cnn2c(NCc3ccc[n+]([O-])c3)cc(N3CCCC[C@H]3CCO)nc12; experiment: as above
[9] = compound: Nc1cc(C(F)(F)F)c(-c2cc(N3CCOCC3)nc(N3CCOCC3)n2)cn1 [Buparlisib/NVP-BKM120]
[10] = compound: CCN1CCN(Cc2ccc(Nc3ncc(F)c(-c4cc(F)c5nc(C)n(C(C)C)c5c4)n3)nc2)CC1
[11] = compound: CC(=O)c1c(C)c2cnc(Nc3ccc(N4CCN(CCOCCOCCOCCNC(=O)COc5cccc6c5C(=O)N(C5CCC(=O)NC5=O)C6=O)CC4)cn3)nc2n(C2CCCC2)c1=O [BSJ-03-123]
[12] = compound: COc1cc2nccc(Oc3ccc(NC(=O)C4(C(=O)Nc5ccc(F)cc5)CC4)cc3)c2cc1OC [Cabozantinib]
[13] = compound: CC(=O)O[C@H]1C(=O)[C@@]2(C)[C@H]([C@H](OC(=O)c3ccccc3)[C@]3(O)C[C@H](OC(=O)[C@H](O)[C@@H](NC(=O)c4ccccc4)c4ccccc4)C(C)=C1C3(C)C)[C@]1(OC(C)=O)CO[C@@H]1C[C@@H]2O [Paclitaxel]
[14] = compound: CCc1cnn2c(NCc3ccc[n+]([O-])c3)cc(N3CCCC[C@H]3CCO)nc12
[15] = compound: CC1(CCN(CC1)C2=CN=C(C(=N2)N)C3=C(C(=CC=C3)Cl)Cl)N [SHP099]
[16] = compound: O=C(CCCCCCC(=O)Nc1ccccc1)NO [Vorinostat]
[17] = compound: NC1(C(=O)N[C@@H](CCO)c2ccc(Cl)cc2)CCN(c2nc[nH]c3nccc2-3)CC1 [AZD5363]
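Wherever GR50, 72 h is given: breast cancer and non-malignant breast epithelial cell lines, Deep Dye Drop or Dye Drop imaging, nine half-log doses, GR normalized to time-zero plates and DMSO-only controls.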

Cell Line: HCC1937
- GR value ([1]; 0.001 µM): 0.676 GR
- GR value ([1]; 0.003162 µM): 0.451 GR
- GR value ([1]; 0.01 µM): 0.249 GR
- GR value ([1]; 0.03162 µM): 0.165 GR
- GR value ([1]; 0.1 µM): 0.0669 GR
- GR value ([1]; 0.3162 µM): 0.0473 GR
- GR value ([1]; 1 µM): -0.0273 GR
- GR value ([1]; 3.162 µM): -0.052 GR
- GR value ([1]; 10 µM): -0.196 GR
- GR value ([2]; 0.001 µM): 0.945 GR
- GR value ([2]; 0.003162 µM): 0.893 GR
- GR value ([2]; 0.01 µM): 1.14 GR
- GR value ([2]; 0.03162 µM): 1.02 GR
- GR value ([2]; 0.1 µM): 1 GR
- GR value ([2]; 0.3162 µM): 0.875 GR
- GR value ([2]; 1 µM): 0.964 GR
- GR value ([2]; 3.162 µM): 1.02 GR
- GR value ([2]; 10 µM): 1.11 GR
- GR value ([3]; 0.0003162 µM): 1.04 GR
- GR value ([3]; 0.001 µM): 1.1 GR
- GR value ([3]; 0.003162 µM): 1.13 GR
- GR value ([3]; 0.01 µM): 1.1 GR
- GR value ([3]; 0.03162 µM): 1.06 GR
- GR value ([3]; 0.1 µM): 1.03 GR
- GR value ([3]; 0.3162 µM): 0.99 GR
- GR value ([3]; 1 µM): 1.07 GR
- GR value ([3]; 3.162 µM): 1.07 GR
- GR value ([4]; 0.0001 µM): 1.08 GR
- GR value ([4]; 0.0003162 µM): 1.02 GR
- GR value ([4]; 0.001 µM): 0.946 GR
- GR value ([4]; 0.003162 µM): 1.01 GR
- GR value ([4]; 0.01 µM): 0.918 GR
- GR value ([4]; 0.03162 µM): 1.01 GR
- GR value ([4]; 0.1 µM): 0.691 GR
- GR value ([4]; 0.3162 µM): 0.19 GR
- GR value ([4]; 1 µM): -0.211 GR
- GR value ([5]; 0.001 µM): 1.03 GR
- GR value ([5]; 0.003162 µM): 1.04 GR
- GR value ([5]; 0.01 µM): 1.06 GR
- GR value ([5]; 0.03162 µM): 1.08 GR
- GR value ([5]; 0.1 µM): 0.973 GR
- GR value ([5]; 0.3162 µM): 0.941 GR
- GR value ([5]; 1 µM): 0.81 GR
- GR value ([5]; 3.162 µM): 0.598 GR
- GR value ([5]; 10 µM): 0.321 GR
- GR value ([6]; 0.0001 µM): 0.926 GR
- GR value ([6]; 0.0003162 µM): 0.922 GR
- GR value ([6]; 0.001 µM): 0.98 GR
- GR value ([6]; 0.003162 µM): 1.05 GR
- GR value ([6]; 0.01 µM): 1.14 GR
- GR value ([6]; 0.03162 µM): 0.808 GR
- GR value ([6]; 0.1 µM): 0.104 GR
- GR value ([6]; 0.3162 µM): -0.107 GR
- GR value ([6]; 1 µM): -0.38 GR
- GR value ([7]; 0.0001 µM): 0.85 GR
- GR value ([7]; 0.0003162 µM): 1 GR
- GR value ([7]; 0.001 µM): 0.958 GR
- GR value ([7]; 0.003162 µM): 1.01 GR
- GR value ([7]; 0.01 µM): 1.09 GR
- GR value ([7]; 0.03162 µM): 1.16 GR
- GR value ([7]; 0.1 µM): 0.954 GR
- GR value ([7]; 0.3162 µM): 0.219 GR
- GR value ([7]; 1 µM): -0.302 GR
- GR value ([8]; 0.0001 µM): 1.02 GR
- GR value ([8]; 0.0003162 µM): 1.03 GR
- GR value ([8]; 0.001 µM): 1.06 GR
- GR value ([8]; 0.003162 µM): 1.1 GR
- GR value ([8]; 0.01 µM): 0.983 GR
- GR value ([8]; 0.03162 µM): 0.0186 GR
- GR value ([8]; 0.1 µM): -0.185 GR
- GR value ([8]; 0.3162 µM): -0.211 GR
- GR value ([8]; 1 µM): -0.206 GR
- GR50, 72 h [9]: 1.45 µM
- GR50, 72 h [10]: 4.82 µM
- GR50, 72 h [11]: 9.94 µM
- GR50, 72 h [12]: > 10 µM
- GR50, 72 h [13]: 0.00245 µM
- GR50, 72 h [14]: 0.0218 µM
- GR50, 72 h [15]: > 10 µM
- GR50, 72 h [16]: 1.91 µM
- GR50, 72 h [17]: > 10 µM

Cell Line: HCC1954
- GR value ([1]; 0.001 µM): 0.224 GR
- GR value ([1]; 0.003162 µM): 0.154 GR
- GR value ([1]; 0.01 µM): 0.0574 GR
- GR value ([1]; 0.03162 µM): 0.0823 GR
- GR value ([1]; 0.1 µM): -0.0214 GR
- GR value ([1]; 0.3162 µM): 0.0013 GR
- GR value ([1]; 1 µM): -0.0774 GR
- GR value ([1]; 3.162 µM): -0.0189 GR
- GR value ([1]; 10 µM): -0.143 GR
- GR value ([2]; 0.001 µM): 0.804 GR
- GR value ([2]; 0.003162 µM): 0.771 GR
- GR value ([2]; 0.01 µM): 0.811 GR
- GR value ([2]; 0.03162 µM): 0.771 GR
- GR value ([2]; 0.1 µM): 0.655 GR
- GR value ([2]; 0.3162 µM): 0.609 GR
- GR value ([2]; 1 µM): 0.654 GR
- GR value ([2]; 3.162 µM): 0.687 GR
- GR value ([2]; 10 µM): 0.539 GR
- GR value ([3]; 0.0003162 µM): 1.14 GR
- GR value ([3]; 0.001 µM): 1.02 GR
- GR value ([3]; 0.003162 µM): 1.07 GR
- GR value ([3]; 0.01 µM): 0.905 GR
- GR value ([3]; 0.03162 µM): 0.863 GR
- GR value ([3]; 0.1 µM): 0.733 GR
- GR value ([3]; 0.3162 µM): 0.611 GR
- GR value ([3]; 1 µM): 0.57 GR
- GR value ([3]; 3.162 µM): 0.523 GR
- GR value ([4]; 0.0001 µM): 1.01 GR
- GR value ([4]; 0.0003162 µM): 0.967 GR
- GR value ([4]; 0.001 µM): 0.962 GR
- GR value ([4]; 0.003162 µM): 0.996 GR
- GR value ([4]; 0.01 µM): 0.907 GR
- GR value ([4]; 0.03162 µM): 0.928 GR
- GR value ([4]; 0.1 µM): 0.613 GR
- GR value ([4]; 0.3162 µM): 0.0144 GR
- GR value ([4]; 1 µM): -0.52 GR
- GR value ([5]; 0.001 µM): 1.01 GR
- GR value ([5]; 0.003162 µM): 0.941 GR
- GR value ([5]; 0.01 µM): 0.844 GR
- GR value ([5]; 0.03162 µM): 0.698 GR
- GR value ([5]; 0.1 µM): 0.584 GR
- GR value ([5]; 0.3162 µM): 0.503 GR
- GR value ([5]; 1 µM): 0.36 GR
- GR value ([5]; 3.162 µM): 0.193 GR
- GR value ([5]; 10 µM): -0.5 GR
- GR value ([6]; 0.0001 µM): 1.03 GR
- GR value ([6]; 0.0003162 µM): 0.958 GR
- GR value ([6]; 0.001 µM): 1.01 GR
- GR value ([6]; 0.003162 µM): 1 GR
- GR value ([6]; 0.01 µM): 0.939 GR
- GR value ([6]; 0.03162 µM): 0.85 GR
- GR value ([6]; 0.1 µM): 0.491 GR
- GR value ([6]; 0.3162 µM): -0.0278 GR
- GR value ([6]; 1 µM): -0.507 GR
- GR value ([7]; 0.0001 µM): 1.04 GR
- GR value ([7]; 0.0003162 µM): 1.06 GR
- GR value ([7]; 0.001 µM): 0.921 GR
- GR value ([7]; 0.003162 µM): 1.04 GR
- GR value ([7]; 0.01 µM): 1.07 GR
- GR value ([7]; 0.03162 µM): 1.05 GR
- GR value ([7]; 0.1 µM): 0.873 GR
- GR value ([7]; 0.3162 µM): 0.66 GR
- GR value ([7]; 1 µM): -0.297 GR
- GR value ([8]; 0.0001 µM): 0.941 GR
- GR value ([8]; 0.0003162 µM): 1.04 GR
- GR value ([8]; 0.001 µM): 1.05 GR
- GR value ([8]; 0.003162 µM): 1.12 GR
- GR value ([8]; 0.01 µM): 0.69 GR
- GR value ([8]; 0.03162 µM): -0.352 GR
- GR value ([8]; 0.1 µM): -0.474 GR
- GR value ([8]; 0.3162 µM): -0.472 GR
- GR value ([8]; 1 µM): -0.441 GR
- GR50, 72 h [9]: 0.523 µM
- GR50, 72 h [10]: 0.302 µM
- GR50, 72 h [11]: 1.07 µM
- GR50, 72 h [12]: > 10 µM
- GR50, 72 h [13]: 0.0025 µM
- GR50, 72 h [14]: 0.0126 µM
- GR50, 72 h [15]: > 10 µM
- GR50, 72 h [16]: 1.43 µM
- GR50, 72 h [17]: 3.06 µM
